Experimental data published in US20100196915A1, “Method of Detecting Oncogenesis of Hematopoietic Cells” (UNIVERSITY OF SOUTH FLORIDA, priority 2007, published 2010).

B1: IL-27: recombinant human IL-27 (R&D Systems), cytokine used to stimulate cells (protein, UniProt Q8NEV9 29-243; Q14213 21-229, looked up)
Interleukin-27 subunit alpha: FPRPPGRPQLSLQELRREFTVSLHLARKLLSEVRGQAHRFAESHLPGVNLYLLPLGEQLPDVSLTFQAWRRLSDPERLCFISTTLQPFHALLGGLGTQGRWTNMERMQLWAMRLDLRDLQRHLRFQVLAAGFNLPEEEEEEEEEEEEERKGLLPGALGSALQGPAQVSWPQLLSTYRLLHSLELVLSRAVRELLLLSKAGHSVWPLGFPTLSPQP
Interleukin-27 subunit beta: RKGPPAALTLPRVQCRASRYPIAVDCSWTLPPAPNSTSPVSFIATYRLGMAARGHSWPCLQQTPTSTSCTITDVQLFSMAPYVLNVTAVHPWGSSSSFVPFITEHIIKPDPPEGVRLSPLAERQLQVQWEPPGSWPFPEIFSLKYWIRYKRQGAARFHRVGPIEATSFILRAVRPRARYYVQVAAQDLTDYGELSDWSLPATATMSLGK

How the values were obtained:
Assay type in all cases: cell-based
[1] = test system: 32D cells transformed with IL-27R; test: Cell growth and viability by trypan blue exclusion, JAK inhibitor I studies
Protocol: (§1) 32D cells were washed twice with RPMI containing 0.1% BSA and incubated in the same medium with either 0.1% DMSO, 0.5 μM or 2 μM JAK inhibitor I (EMD Biosciences/Calbiochem) for 3 hours before lysis. For cell growth and viability, cells were plated at a concentration of 2×10^5/ml in RPMI/10% FBS and either 0.1% DMSO or 0.5 μM JAK inhibitor I. Cell growth and viability were determined by trypan blue exclusion. After 24 hr of JAK inhibitor I treatment, the percentage of apoptotic cells and cell cycle profiles were determined by flow cytometry. See supporting information.
The role of JAK family kinases in transformation by IL-27R was addressed by culturing 32D/IL-27R transformed cells with the pan-JAK inhibitor, JAK inhibitor I (Thompson, J. E., et al., Photochemical preparation of a pyridone containing tetracycle: a Jak protein kinase inhibitor. Bioorg. Med. Chem. Lett., 2002 Apr. 22; 12(8):1219-23). Cells transformed with IL-27R were cultured in the presence of 0.1% DMSO or 0.5 μM JAK inhibitor I on day 0. […] Cell viability, determined using trypan blue, also decreases in the presence of the inhibitor, seen in FIG. 4(A). […] Transformed 32D cells were cultured in the presence of 0.1% DMSO (lane 2), 0.5 μM (lane 3) or 2 μM (lane 4) JAK inhibitor I. Control 32D cells starved of serum/IL-3 in the presence of 0.1% DMSO for three hr is shown in lane 1. […]

[2] = test system: 32D cells transformed with IL-27R; test: Cell cycle profile by flow cytometry of PI-stained cells; details: after 24 hr of treatment, FIG. 3(B)
Protocol: as §1
(§2) Flow Cytometry: Apoptosis and Cell Cycle Analysis. The percentage of apoptotic cells after 24 h JAK inhibitor I treatment was determined by flow cytometric analysis of annexin V-fluorescein (BD Biosciences) binding. […] Four-hundred microliters of 1× binding buffer was added to the samples and the cells were analyzed by flow cytometry. Flow cytometric analysis was performed on a FACS Scan instrument with CellQuest software (BD Biosciences) and data obtained were analyzed with FlowJo software (Tree Star). Cell cycle profiles after 24 h JAK inhibitor I treatment were determined by flow cytometric analysis of PI-stained cells. […] Stained cells were then analyzed by flow cytometry using a FACS Scan with CellQuest software and analyzed with FlowJo software (Tree Star). […]

[3] = test system: 32D cells transformed with IL-27R; test: Apoptosis by annexin V binding, flow cytometry; details: after 24 hr of treatment, FIG. 4(B)
Protocol: as §1, §2

JAK family kinases = test: Immunoblot of STAT1, STAT3, STAT5 and ERK1/2 phosphorylation induced by IL-27R; details: 0.5 μM or 2 μM, 3 hours, FIG. 5
Protocol: Cells were washed in PBS and lysed in lysis buffer (25 mM Tris pH7.4, 150 mM NaCl, 25 mM NaF, 1% Triton-X100, 1 mM sodium vanadate, 2 mM sodium pyrophosphate, 10 μg/ml leupeptin, 2 μg/ml aprotinin, and 1 mM PMSF). Protein concentrations were determined by BCA protein assay kit (Pierce Biotechnology), and equal amounts of protein were analyzed by SDS-PAGE. Primary antibodies used in this study include: IL-27R (TCCR) (C-term) (Sigma), phospho-(P-) STAT1(Y701), P-STAT3(Y705), P-JAK1(Y1022/1023), P-JAK2(Y1007/1008), P-ERK(T202/Y204), JAK1, JAK2 (Cell Signaling Technology), P-STAT5(Y694) (BD Transduction Laboratories), STAT1, STAT3, STAT5, and ERK1 (Santa Cruz Biotechnology). Immunoblots were developed using ECL Western Blotting Substrate (Pierce Biotechnology).
as §1, with “information. […]” for “information.”

[4] = test system: IL-27R-expressing 32D cells; test: IL-27 stimulation, P-STAT1 immunoblot; details: 100 ng/ml IL-27, 10 min, cells lack gp130
Protocol: (§3) To stimulate cell cultures with IL-27, 32D and BaF3 cells expressing IL-27R were washed of growth factors and incubated in RPMI medium 1640 containing 0.1% BSA for 3 h. Cells were left untreated or stimulated with 100 ng/ml recombinant human IL-27 (R&D Systems) for 10 min. 293T cells were transfected with IL-27R, JAK2-V617F, and gp130 siRNA as indicated and as described. Two days later, cells were stimulated with 100 ng/ml human IL-27 for the length of time indicated and washed with ice-cold PBS, and cell lysates were prepared and analyzed by immunoblotting as described.
(§4) Finally, while IL-27R-mediated transformation is gp130-independent, these observations still support the paradigm that IL-27-mediated signaling requires gp130 (Pflanz, S., et al., J. Immunol., 2004 Feb. 15; 172(4):2225-31). […] Cells were left untreated or stimulated with 100 ng/ml IL-27 for 10 min and cell lysates analyzed by immunoblotting for phosphorylated (P-) and total STAT1. IL-27-induced signaling (as measured by STAT1 phosphorylation) is not observed in IL-27R-expressing 32D or BaF3 cells, which lack gp130, but is seen in IL-27R-expressing 293T cells, which express gp130, data not shown. […] Two days later, cells were stimulated with 100 ng/ml IL-27 for the length of time indicated, and cell lysates were prepared and analyzed by immunoblotting for P-STAT1, total STAT1, and gp130. […]

[5] = test system: IL-27R-expressing BaF3 cells; test: IL-27 stimulation, P-STAT1 immunoblot; details: 100 ng/ml IL-27, 10 min, cells lack gp130
Protocol: as §3, §4

[6] = test system: IL-27R-expressing 293T cells; test: IL-27 stimulation and gp130 siRNA depletion, P-STAT1 immunoblot
Protocol: as §3, §4

Row | Molecule | cell growth ([1]; 0.5 μM JAK inhibitor I vs 0.1% DMSO, from day 0, FIG. 3(A)) | cell viability ([1]; 0.5 μM JAK inhibitor I, trypan blue, FIG. 4(A)) | cell cycle arrest [2] | number of cells in S-phase [2] | apoptosis (annexin V binding) [3] | ERK1/2 activation (JAK family kinases) | STAT1, -3 and -5 phosphorylation induced by IL-27R (JAK family kinases) | IL-27-induced signaling (STAT1 phosphorylation) [4] | IL-27-induced signaling (STAT1 phosphorylation) [5] | IL-27R/JAK2-V617F-mediated activation of STAT1 ([6]; 100 ng/ml IL-27, 293T cells transfected with IL-27R and JAK2-V617F) | IL-27-induced signaling (STAT1 phosphorylation) ([6]; 100 ng/ml IL-27, cells express gp130)
1 | JAK inhibitor I | the growth of these cells ceases | decreases | induces a G1 as well as a G2 cell cycle arrest | dramatic decrease | induction of apoptosis | prevents | blocks |  |  |  | 
2 | B1 |  |  |  |  |  |  |  | not observed | not observed | not enhanced | is seen
